Earlier results, collected in patent US10493069B2, “Methods of treating behavioral syndromes using pipradrol” (Ovid Therapeutics Inc., priority 2016, dated 2019).

Tested on: individuals with depression
Conditions: study on 111 individuals with depression; Rickels et al., J Clin Pharmacol 14, 127-133 (1974)

OC(c1ccccc1)(c1ccccc1)C1CCCCN1 (stereo not shown) [pipradrol]
efficacy compared with placebo in depression: not superior to placebo
